In patent US11173144B2, “Adrenergic receptor modulating compounds and methods of using the same” (The Board of Trustees of the Leland Stanford Junior …, priority 2016, dated 2021):
Entries after “also recorded” stand apart in the source; their conditions may differ.

Experiments:
[1] = test system: panel of CNS relevant targets, including G-protein coupled receptor and transporters; assay: Screen against a panel of CNS relevant targets (off-target affinity); assay type: binding
From the text: From a drug development perspective, characterizing the off-target effects of lead compounds is an important issue, as interactions with off-target molecules may lead to undesirable side effects. Thus we screened xamoterol (S) and the key compound compound 43 against a panel of CNS relevant targets, including G-protein coupled receptor and transporters. […].

ADRB1 = ADRB1 (Homo sapiens (Human), UniProt P08588); assay: β-arrestin assay (PathHunter enzyme fragment complementation, CHO-K1-ADRB1 cells); assay type: cell-based; details: Table 4
Description: Pharmacological activity of compounds in the β-arrestin pathway mediated by ADRB1 are evaluated using an enzyme fragment complementation method with a β-galactosidase functional reporter. An engineered CHO-K1-ADRB1 PathHunter cell line (DiscoveRx) is used in the assay. In this cell line, enzyme acceptor (β-galactosidase fragment) is fused to β-arrestin and enzyme donor (β-galactosidase fragment) is fused to the ADRB1. Thus, activation of the ADRB1 stimulates binding of β-arrestin to the ProLink-tagged ADRB1 and forces complementation of the two enzyme fragments, resulting in the formation of an active β-galactosidase enzyme. Briefly, CHO-K1-ADRB1 PathHunter cell lines are plated in a total volume of 20 μL cell plating reagent (DiscoveRx, 93-0563R0A) at a density of 2,500 cells/well into 384 well microplates and incubated overnight at 37° C. in 5% CO2. […] Chemiluminescent signal is then read with a PerkinElmer Envision™ instrument. The results are expressed as a percent of the maximum efficacy achieved with isoproterenol.
Effects of compounds on β-arrestin signaling pathways are determined using CHO cells stably expressing human β1-adrenergic receptors or human β2-adrenergic receptors with PathHunter® β-Arrestin GPCR assay system (DiscoveRx). In this system, adrenergic receptor is fused in frame with the small enzyme fragment ProLink™ and co-expressed in cell stably expressing at fusion protein of β-arrestin and the larger, N-terminal deletion mutant of β-galactosidase enzyme. Activation of the adrenergic receptor stimulates binding of β-arrestin to the ProLink-tagged receptor and forces complementation of the two enzyme fragments, resulting in the formation of an active β-gal enzyme. This interaction leads to an increase in enzyme activity that can be measured using chemiluminescent detection reagents. The effects of compounds on β-arrestin signaling pathways are determined 90 minutes after incubating the cells with the test compounds.

[2] = test system: transient middle cerebral artery occlusion (tMCAO) model of stroke; assay: tMCAO model of stroke, infarction volume; assay type: in vivo; details: rat tMCAO, 3 mg/kg, 21 days
Description: The tMCAO is performed on animal under isoflurane inhalation anesthesia (4% for induction and 1.5-2.5% for maintenance) in airoxygen mixture ratio 3:1. Ventral neck area is shaved by electric razor and disinfected using betadine followed by 70% ethanol solution. Subsequently, a midline incision is made in the ventral neck area, sharp and blunt dissection techniques are used to isolate left common carotid artery (CCA) and the internal and external carotid arteries (ICA and ECA, respectively). The proximal CCA is ligated below the bifurcation using 3-0 braided silk suture allowing enough room for filament insertion in the area between the ligation and bifurcation. Subsequently, ECA is ligated at its origin dose to the CCA bifurcation, so that the occipital artery stays proximal to the ligature. A microvessel dip is placed on ICA temporarily to avoid excessive bleeding during filament insertion. In order to occlude the origin of middle cerebral artery (MCA), a monofilament with silicon coated tip (0.39 mm diameter, 5-6 mm long) is then inserted into the CCA, the microvessel dip removed following filament advancement into the ICA 20 mm from the bifurcation through small, horizontal incision. The filament is secured in its place by a suture knot placed between the bifurcation and proximal CCA ligature. […]

C57bl/6J mice = assay: Neurogenesis, doublecortin-immunoreactive neuroblast counts in dentate gyrus; details: 0.3 mg/kg subcutaneous daily from 3.5 to 6.0 months of age
[3] = test system: Abeta-induced LTP impairment in hippocampal slices; assay: Long-term potentiation in hippocampal slices exposed to amyloid beta; details: mouse hippocampal slices, 10 uM
Description: Mice were anesthetized with isoflurane before decapitation. The brain was quickly removed and immersed for 2 min in ice-cold low-calcium modified artificial cerebrospinal fluid (mACSF) composed of (in mM): 119 NaCl, 2.5 KCl, 1 CaCl2, 3 MgSO4, 1 NaH2PO4, 26 NaHCO3 and 10 glucose, osmolarity ˜305 mOsm, continuously bubbled with 95% O2-5% CO2, pH=7.4. The hippocampus was dissected out and cut in ice-cold mACSF with a vibratome (Leica VT1000S; Nussloch, Germany) into […] slices from the middle part of the hippocampus. The slices were allowed to recover in oxygenated mACSF at 33° C. for 10 min, and then at room temperature for an additional 2-3 hr before experimental recordings. Slices were transferred into the recording chamber and superfused with regular ACSF containing (in mM): 119 NaCl, 2.5 KCl, 2.5 CaCl2, 1.3 MgSO4, 1 NaH2PO4, 26 NaHCO3 and 10 glucose, continuously bubbled with 95% O2-5% C02, pH=7.4, osmolarity ˜305 mOsm, at a constant rate of 2.7 mL/min at 32° C. […] The initial slope of field excitatory postsynaptic potentials (fEPSP) was measured at latencies 0.1-0.9 ms. […] After stabilization of responses, input-output dependences were measured using series of stimulation intensities (range 30-150 μA). […] LTP was induced by high-frequency tetanization ([…], 100 Hz for 1 sec), and the responses were recorded for the period of 1.5 h after the tetanus.

5XFAD mice = assay: Chronic xamoterol in 5XFAD mouse model of Alzheimer's disease, cortex qRT-PCR of inflammation genes; details: 3 mg/kg/day by mini-osmotic pump, 2.5 months

Chain of ADRB1 (P08588 whole entry, the tested form may be a part): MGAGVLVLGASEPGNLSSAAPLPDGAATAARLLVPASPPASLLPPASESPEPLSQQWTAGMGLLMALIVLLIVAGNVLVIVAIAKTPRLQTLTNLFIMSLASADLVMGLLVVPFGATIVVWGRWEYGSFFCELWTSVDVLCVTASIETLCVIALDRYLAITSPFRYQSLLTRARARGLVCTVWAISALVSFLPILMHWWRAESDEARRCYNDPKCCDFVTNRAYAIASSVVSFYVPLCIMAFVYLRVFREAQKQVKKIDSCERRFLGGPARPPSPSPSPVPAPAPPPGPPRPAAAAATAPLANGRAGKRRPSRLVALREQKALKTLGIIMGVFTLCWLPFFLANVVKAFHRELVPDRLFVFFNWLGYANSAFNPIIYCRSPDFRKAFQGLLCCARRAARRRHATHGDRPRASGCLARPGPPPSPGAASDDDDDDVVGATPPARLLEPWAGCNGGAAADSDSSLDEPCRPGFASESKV

Row | Compound | affinity for opioid, histamine, and muscarinic acetylcholine receptors [1] | β-arrestin pathway % Iso max (ADRB1; percent efficacy compared to the maximum response achieved with isoproterenol) | EC50 (ADRB1; read-out: β-arrestin pathway ADRB1 EC50) | infarction volume [2] | neurogenesis (neuroblast counts in dentate gyrus) (C57bl/6J mice) | amyloid beta-induced LTP impairment [3] | expression of inflammation genes in cortex (5XFAD mice)
1 | COc1ccccc1OCCNC[C@H](O)COc1ccc(O)cc1 [Compound 43] | nominal affinity | 18.3% | 10 to 100 nM | – | – | – | –
2 | O=C(NCCNCC(O)COc1ccc(O)cc1)N1CCOCC1 (stereo not shown) [Xamoterol, reference compound] | – | – | – | reduces infarction volume | increases neurogenesis | blocks the LTP impairment induced by Ab; also recorded: blocks the Ab-induced LTP in impairment | attenuated elevated expression of Iba1, CD74, CD14 and TGFb
